Entries after “also recorded” stand apart in the source; their conditions may differ. Residues, ends and D or L forms follow the SMILES beside them. No end group written: not given here.
What was measured:
[1] = tested on: isolated adult rabbit cardiac myocytes; experiment: Sarcomere shortening in isolated adult rabbit cardiac myocytes; format: cell-based; settings: pacing at 0.5 Hz and 1 Hz
Protocol: FIG. 7. A. Representative sarcomere shortening traces in isolated adult rabbit cardiac myocytes paced at 0.5 Hz. A signal-averaged recording from 10 traces was made in myocytes 1 day after isolation (n=3). Recordings show shortening before and 15 minutes after initiating perfusion with 10^−10 M hRFRP-1 or media (control) at 37° C.
Adult rat and rabbit ventricular cardiac myocytes were isolated as previously described (Westfall, M. V. Et al. (1997), Westfall, M. V. and Borton, A. R. (2003)). Hearts from Sprague-Dawley rats and New Zealand white rabbits were perfused and enzymatically digested to isolate myocytes; the protocol was approved by The University of Michigan University Committee on Use and Care of Animals (UCUCA) in accordance with university and federal regulatory guidelines. […]
Sarcomere shortening was detected using a video-based detection system (IonOptix, MA, USA) as described earlier (Westfall, M. V. and Borton, A. R. (2003)). […] Signal averaged data were analyzed to determine resting sarcomere length, shortening amplitude (peak shortening), shortening rate (departure velocity), and re-lengthening rate (return velocity), as previously described (Westfall, M. V. Et al. (1997), Westfall, M. V. and Borton, A. R. (2003)), in 7-20 myocytes from 3-4 rats for each peptide concentration, bis-1, and media.

[2] = tested on: isolated adult rat cardiac myocytes; format: cell-based; settings: peptides at 10^−8M or 10^−7M; peak shortening, departure and return velocity
Text: Adult rat and rabbit ventricular cardiac myocytes were isolated as previously described (Westfall, M. V. Et al. (1997), Westfall, M. V. and Borton, A. R. (2003)). Hearts from Sprague-Dawley rats and New Zealand white rabbits were perfused and enzymatically digested to isolate myocytes; the protocol was approved by The University of Michigan University Committee on Use and Care of Animals (UCUCA) in accordance with university and federal regulatory guidelines. Aliquots of isolated ventricular myocytes were plated on laminin-coated glass coverslips in serum-containing Dulbecco's Modified Eagle Media (Invitrogen, CA, US) supplemented with 5% fetal bovine serum, and 50 U/ml penicillin and 50 μg/ml streptomycin (pen/strep; Sigma-Aldrich, MO, US). Two hours later, media was replaced with serum-free M199 (Invitrogen) supplemented with 1.8 mM Ca^2+, 10 mM HEPES, 10 mM glutathione, and pen/strep. Rat myocytes were transferred to a stimulation chamber and electrically paced the day after isolation (Zornik, E. Et al. (1999), Westfall, M. V. Et al. (1997)). Media was changed daily for all myocyte preparations.
Sarcomere shortening was detected using a video-based detection system (IonOptix, MA, USA) as described earlier (Westfall, M. V. and Borton, A. R. (2003)). Rat myocytes were paced at 0.2 Hz and rabbit myocytes were paced at 0.5 Hz or 1.0 Hz for these studies. Recordings were made prior to application of each peptide concentration, the protein kinase C (PKC) inhibitor bisindolylmaleimide-1, (bis-1; CalBiochem/EMD, NJ, US), or media only (control, C) and at 1, 3, 5, 10 and 15 minutes after application of peptide, bis-1, or media. Signal averaged data were analyzed to determine resting sarcomere length, shortening amplitude (peak shortening), shortening rate (departure velocity), and re-lengthening rate (return velocity), as previously described (Westfall, M. V. Et al. (1997), Westfall, M. V. and Borton, A. R. (2003)), in 7-20 myocytes from 3-4 rats for each peptide concentration, bis-1, and media.

[3] = tested on: mouse heart; experiment: Echocardiography in mice after tail-vein injection; format: in vivo
Protocol: Echocardiograms were performed as previously described (Boluyl, M. O. Et al. (2004)) according to the recommendations of the American Society of Echocardiography. All echocardiography was performed by one registered echocardiographer. Female C57BL/6 mice were weighed to accurately calculate the amount of peptide delivered per kilogram body weight (kg bw). Animal use for echocardiography was approved by The University of Michigan UCUCA in accordance with university and federal regulatory guidelines. Physiological saline or peptide was intravenously delivered via tail-vein injections to a total volume of 150 μl to achieve 5 μmols or 500 ηmols hRFRP-1/kg bw. Each animal was used only once for an injectant, either physiological saline or peptide (n=4-5). […] Heart rate along with left ventricular end-systolic and end-diastolic dimensions were measured from the two-dimensional sector scans obtained from the parasternal long axis and apical four chamber views using the conventions of the American Society of Echocardiography. […] Left ventricular volumes were measured at end systole (Vols) and end diastole (Vold) and used to calculate stroke volume (SV=Vold−Vols) and ejection fraction (EF %=endocardial SV/endocardial Vold×100). Cardiac output (CO=endocardial SV×heart rate) was calculated from stroke volume and heart rate. […]

| Molecule | arrhythmic beats and after-contractions [1] | character relative to hRFRP-1 on myocyte contractile function (agonist, antagonist, reverse agonist; in words) [2] | effect on the hRFRP-1-induced decrease of contractile performance in vivo ([3]; given with hRFRP-1, tail-vein injection) | effect on cardiac function in vivo when applied alone (echocardiographic parameters) ([3]; tail-vein injection) |
| --- | --- | --- | --- | --- |
| CSCC[C@H](N)C(=O)N1CCC[C@H]1C(=O)N[C@@H](Cc1cnc[nH]1)C(=O)N[C@@H](CO)C(=O)N[C@@H](Cc1ccccc1)C(=O)N[C@@H](C)C(=O)N[C@@H](CC(N)=O)C(=O)N[C@@H](CC(C)C)C(=O)N1CCC[C@H]1C(=O)N[C@@H](CC(C)C)C(=O)N[C@@H](CCCNC(=N)N)C(=O)N[C@@H](Cc1ccccc1)C(N)=O [hRFRP-1] (H-MPHSFANLPLRF-NH2) | not observed |  |  |  |
| LPLAFamide (LPLAF-NH2) |  | hRFRP-1 antagonist | blocked the effects of hRFRP-1 | slight increase in cardiac function; also recorded: enhances cardiac function |

Reference: patent US9527889B2, “RFamide-related peptides and methods thereof” (THE REGENTS OF THE UNIVERSITY OF MICHIGAN, priority 2010, dated 2016)
